Reference: ChEMBL document CHEMBL1909046, “DrugMatrix in vitro pharmacology data”

Columns and labels:
[1] = target: T1, Polyunsaturated fatty acid lipoxygenase ALOX15 (Oryctolagus cuniculus, UniProt P12530); experiment: biochemical; assay type: tissue-based, Reticulocytes; conditions: reticulocytes;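 note: inhibition of 15-lipoxygenase enzyme activity measured with linoleic acid as the substrate; in other assays of this panel Not Active means under 50% inhibition at 10 µM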
T1 sequence (P12530 whole entry): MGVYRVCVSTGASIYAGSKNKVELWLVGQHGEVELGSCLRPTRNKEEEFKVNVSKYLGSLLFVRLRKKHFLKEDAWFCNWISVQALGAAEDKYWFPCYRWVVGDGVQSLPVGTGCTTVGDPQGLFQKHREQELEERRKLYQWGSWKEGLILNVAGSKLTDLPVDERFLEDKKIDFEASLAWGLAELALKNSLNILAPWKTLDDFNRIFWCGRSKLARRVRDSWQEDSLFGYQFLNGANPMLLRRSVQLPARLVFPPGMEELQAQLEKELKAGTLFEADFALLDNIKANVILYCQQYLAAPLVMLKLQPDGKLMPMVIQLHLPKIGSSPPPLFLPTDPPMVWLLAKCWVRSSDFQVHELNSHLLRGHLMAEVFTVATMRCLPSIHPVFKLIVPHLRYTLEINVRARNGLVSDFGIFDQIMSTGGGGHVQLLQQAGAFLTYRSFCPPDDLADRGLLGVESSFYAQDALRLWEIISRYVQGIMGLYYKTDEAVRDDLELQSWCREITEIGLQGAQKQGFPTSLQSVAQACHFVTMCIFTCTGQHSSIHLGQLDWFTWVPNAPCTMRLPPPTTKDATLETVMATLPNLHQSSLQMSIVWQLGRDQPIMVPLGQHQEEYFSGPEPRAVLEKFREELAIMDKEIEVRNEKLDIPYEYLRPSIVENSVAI

[2] = target: Protein phosphatase 3 catalytic subunit alpha (Homo sapiens, UniProt Q08209); parameters: species or system Escherichia coli;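 note: inhibition of calcineurin (PP2B) enzyme activity, measured with DiFMUP as the substrate; in other assays of this panel Not Active means under 50% inhibition at 10 µM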
[3] = DRUGMATRIX: Glutamate, Kainate radioligand binding (ligand: [3H] Kainic acid); assay type: cell membranes, Rattus norvegicus, Wistar, Brain, Membrane; conditions: Not Active = under 50% inhibition at 10 µM
[4] = target: 5-hydroxytryptamine receptor 6 (Homo sapiens, UniProt P50406); assay type: cell membranes, HeLa, Membrane; conditions: hela; note: in other assays of this panel Not Active means under 50% inhibition at 10 µM
[5] = target: T2, Alpha-1A adrenergic receptor (Rattus norvegicus, UniProt P43140); experiment: DRUGMATRIX: Alpha-1A adrenergic receptor radioligand binding (ligand: prazosin); assay type: cell membranes, Wistar, Submaxillary gland, Membrane; conditions: Not Active = under 50% inhibition at 10 µM
T2 sequence (P43140 whole entry): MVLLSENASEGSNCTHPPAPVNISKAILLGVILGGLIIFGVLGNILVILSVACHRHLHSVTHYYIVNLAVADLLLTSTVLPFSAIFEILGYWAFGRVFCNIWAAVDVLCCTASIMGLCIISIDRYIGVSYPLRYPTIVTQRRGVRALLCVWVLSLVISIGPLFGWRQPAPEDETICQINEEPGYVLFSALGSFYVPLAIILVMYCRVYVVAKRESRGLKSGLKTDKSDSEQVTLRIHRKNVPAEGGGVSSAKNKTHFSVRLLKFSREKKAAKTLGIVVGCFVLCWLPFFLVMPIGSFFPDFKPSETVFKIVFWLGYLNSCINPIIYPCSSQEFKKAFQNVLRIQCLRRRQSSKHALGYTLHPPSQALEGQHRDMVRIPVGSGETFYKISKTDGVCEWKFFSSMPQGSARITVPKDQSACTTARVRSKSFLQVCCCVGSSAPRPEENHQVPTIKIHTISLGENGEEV

Nitric oxide synthase 1 = Nitric oxide synthase 1 (Rattus norvegicus, UniProt P29476); assay type: tissue-based, Cerebellum; note: in other assays of this panel Not Active means under 50% inhibition at 10 µM
Nitric oxide synthase 1, sequence (P29476 whole entry): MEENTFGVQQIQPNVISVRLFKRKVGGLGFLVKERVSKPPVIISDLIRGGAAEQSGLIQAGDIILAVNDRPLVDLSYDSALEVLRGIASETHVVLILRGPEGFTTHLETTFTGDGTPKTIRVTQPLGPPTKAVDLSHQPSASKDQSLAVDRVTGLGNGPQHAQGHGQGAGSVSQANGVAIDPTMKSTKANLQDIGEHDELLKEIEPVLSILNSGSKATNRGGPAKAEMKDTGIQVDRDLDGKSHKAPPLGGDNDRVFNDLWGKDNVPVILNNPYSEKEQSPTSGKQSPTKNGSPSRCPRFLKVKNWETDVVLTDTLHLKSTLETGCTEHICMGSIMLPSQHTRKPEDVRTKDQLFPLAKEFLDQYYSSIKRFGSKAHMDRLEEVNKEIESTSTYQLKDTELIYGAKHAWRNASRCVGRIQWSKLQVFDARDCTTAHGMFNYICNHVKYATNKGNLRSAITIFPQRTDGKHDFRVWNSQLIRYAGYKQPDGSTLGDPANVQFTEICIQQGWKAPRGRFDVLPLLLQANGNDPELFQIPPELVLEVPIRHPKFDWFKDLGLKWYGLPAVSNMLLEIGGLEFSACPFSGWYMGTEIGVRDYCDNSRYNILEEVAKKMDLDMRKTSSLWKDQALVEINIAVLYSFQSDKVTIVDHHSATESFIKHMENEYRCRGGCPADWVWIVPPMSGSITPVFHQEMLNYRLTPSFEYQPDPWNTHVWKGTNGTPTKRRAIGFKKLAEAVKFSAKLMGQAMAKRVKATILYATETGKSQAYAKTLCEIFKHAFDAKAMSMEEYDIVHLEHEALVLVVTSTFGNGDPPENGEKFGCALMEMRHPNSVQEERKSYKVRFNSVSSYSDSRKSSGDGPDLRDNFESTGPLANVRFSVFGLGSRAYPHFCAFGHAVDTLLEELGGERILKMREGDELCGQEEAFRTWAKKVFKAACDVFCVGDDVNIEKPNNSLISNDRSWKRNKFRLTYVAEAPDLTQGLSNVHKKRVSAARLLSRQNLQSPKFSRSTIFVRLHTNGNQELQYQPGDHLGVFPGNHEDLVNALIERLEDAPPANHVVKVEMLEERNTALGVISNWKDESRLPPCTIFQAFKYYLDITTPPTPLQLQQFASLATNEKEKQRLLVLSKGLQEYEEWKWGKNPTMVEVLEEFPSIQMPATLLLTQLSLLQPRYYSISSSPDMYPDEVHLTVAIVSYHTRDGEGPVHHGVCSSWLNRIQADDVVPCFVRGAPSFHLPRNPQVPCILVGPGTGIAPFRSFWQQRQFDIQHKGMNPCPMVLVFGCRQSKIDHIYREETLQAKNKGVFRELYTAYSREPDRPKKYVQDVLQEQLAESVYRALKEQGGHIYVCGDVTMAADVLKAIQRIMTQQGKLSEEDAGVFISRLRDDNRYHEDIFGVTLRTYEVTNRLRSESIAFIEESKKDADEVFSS

5-hydroxytryptamine receptor 6, sequence (P50406 whole entry): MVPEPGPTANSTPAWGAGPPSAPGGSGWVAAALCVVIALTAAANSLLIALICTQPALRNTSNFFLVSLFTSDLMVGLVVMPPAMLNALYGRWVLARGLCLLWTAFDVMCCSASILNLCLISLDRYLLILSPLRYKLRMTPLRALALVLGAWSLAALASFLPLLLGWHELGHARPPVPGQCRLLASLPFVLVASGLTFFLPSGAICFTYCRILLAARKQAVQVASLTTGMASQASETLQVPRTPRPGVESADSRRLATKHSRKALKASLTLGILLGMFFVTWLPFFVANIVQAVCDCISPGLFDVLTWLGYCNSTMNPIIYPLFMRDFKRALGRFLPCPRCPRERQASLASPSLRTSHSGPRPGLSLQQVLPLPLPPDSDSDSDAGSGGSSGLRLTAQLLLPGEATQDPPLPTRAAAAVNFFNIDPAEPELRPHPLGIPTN

COc1ccccc1OCC(O)COC(N)=O (centres undefined) [METHOCARBAMOL]
Not Active: IC50 [1] | IC50 [2] | IC50 [3] | Ki [3] | IC50 [4] | IC50 [5] | IC50 (Nitric oxide synthase 1)

CN(Cc1cnc2nc(N)nc(N)c2n1)c1ccc(C(=O)N[C@@H](CCC(=O)O)C(=O)O)cc1 [METHOTREXATE]
Not Active: IC50 [1] | IC50 [2] | IC50 [3] | Ki [3] | IC50 [4] | IC50 [5] | IC50 (Nitric oxide synthase 1)

COC(=O)c1ccccc1O [METHYL SALICYLATE]
Not Active: IC50 [1] | IC50 [2] | IC50 [3] | Ki [3] | IC50 [4] | IC50 [5] | IC50 (Nitric oxide synthase 1)

COc1ccc2cc(CCC(C)=O)ccc2c1 [NABUMETONE]
Not Active: IC50 [1] | IC50 [2] | IC50 [3] | Ki [3] | IC50 [4] | IC50 [5] | IC50 (Nitric oxide synthase 1)

O=C(O)c1cccnc1 [NIACIN]
Not Active: IC50 [1] | IC50 [2] | IC50 [3] | Ki [3] | IC50 [4] | IC50 [5] | IC50 (Nitric oxide synthase 1)

CNC(=C[N+](=O)[O-])NCCSCc1csc(CN(C)C)n1 [NIZATIDINE]
Not Active: IC50 [1] | IC50 [2] | IC50 [3] | Ki [3] | IC50 [4] | IC50 [5] | IC50 (Nitric oxide synthase 1)

C[C@]12C/C(=C/O)C(=O)C[C@@H]1CC[C@@H]1[C@@H]2CC[C@@]2(C)[C@H]1CC[C@]2(C)O [OXYMETHOLONE]
Not Active: IC50 [1] | IC50 [2] | IC50 [3] | Ki [3] | IC50 [4] | IC50 [5] | IC50 (Nitric oxide synthase 1)

CC(C)(CO)C(O)C(=O)NCCCO (centres undefined) [PANTHENOL]
Not Active: IC50 [1] | IC50 [2] | IC50 [3] | Ki [3] | IC50 [4] | IC50 [5] | IC50 (Nitric oxide synthase 1)

COc1ccc(Cc2nccc3cc(OC)c(OC)cc23)cc1OC [PAPAVERINE]
Not Active: IC50 [1] | IC50 [2] | IC50 [3] | Ki [3] | IC50 [4] | IC50 [5] | IC50 (Nitric oxide synthase 1)

OCCN1CCN(CCCN2c3ccccc3Sc3ccc(Cl)cc32)CC1 [PERPHENAZINE]
Not Active: IC50 [1] | IC50 [2] | IC50 [3] | Ki [3] | IC50 [4] | IC50 [5] | IC50 (Nitric oxide synthase 1)

CCCCC1C(=O)N(c2ccccc2)N(c2ccccc2)C1=O [PHENYLBUTAZONE]
Not Active: IC50 [1] | IC50 [2] | IC50 [3] | Ki [3] | IC50 [4] | IC50 [5] | IC50 (Nitric oxide synthase 1)

Cc1cccc(Nc2cc(Cl)nc(SCC(=O)O)n2)c1C [PIRINIXIC ACID]
Not Active: IC50 [1] | IC50 [2] | IC50 [3] | Ki [3] | IC50 [4] | IC50 [5] | IC50 (Nitric oxide synthase 1)

CC[C@H](C)C(=O)O[C@H]1C[C@H](O)C=C2C=C[C@H](C)[C@H](CC[C@@H](O)C[C@@H](O)CC(=O)O)[C@H]21 [PRAVASTATIN]
Not Active: IC50 [1] | IC50 [2] | IC50 [3] | Ki [3] | IC50 [4] | IC50 [5] | IC50 (Nitric oxide synthase 1)

CC(C)(Sc1cc(C(C)(C)C)c(O)c(C(C)(C)C)c1)Sc1cc(C(C)(C)C)c(O)c(C(C)(C)C)c1 [PROBUCOL]
Not Active: IC50 [1] | IC50 [2] | IC50 [3] | Ki [3] | IC50 [4] | IC50 [5] | IC50 (Nitric oxide synthase 1)

COBALT(II) ACETYLACETONATE
Not Active: IC50 [1] | Ki [1] | IC50 [2] | Ki [2] | IC50 [3] | Ki [3] | IC50 [4] | Ki [4] | IC50 [5] | Ki [5] | IC50 (Nitric oxide synthase 1) | Ki (Nitric oxide synthase 1)

INSULIN HUMAN
Not Active: IC50 [1] | Ki [1] | IC50 [2] | Ki [2] | IC50 [3] | Ki [3] | IC50 [4] | Ki [4] | IC50 [5] | Ki [5] | IC50 (Nitric oxide synthase 1) | Ki (Nitric oxide synthase 1)

POLYVINYL ALCOHOL
Not Active: IC50 [1] | Ki [1] | IC50 [2] | Ki [2] | IC50 [3] | Ki [3] | IC50 [4] | Ki [4] | IC50 [5] | Ki [5] | IC50 (Nitric oxide synthase 1) | Ki (Nitric oxide synthase 1)
